Data as given in BigSolDB 2.1.

O=C(O)c1cccc(C(=O)O)c1
Settings	solubility (mole fraction)
in isopropanol, 278.55 K	0.00218
in isopropanol, 279.87 K	0.00226
in isopropanol, 283.25 K	0.00255
in isopropanol, 288.15 K	0.00291
in isopropanol, 293.15 K	0.00325
in isopropanol, 298.15 K	0.00396
in isopropanol, 303.05 K	0.00459
in isopropanol, 308.25 K	0.00535
in isopropanol, 313.15 K	0.00607
in isopropanol, 318.25 K	0.00675
in methanol, 278.15 K	0.00253
in methanol, 283.25 K	0.00276
in methanol, 288.05 K	0.00314
in methanol, 293.25 K	0.00346
in methanol, 298.75 K	0.00379
in methanol, 302.65 K	0.00411
in methanol, 307.95 K	0.00456
in n-butanol, 278.06 K	0.00187
in n-butanol, 283.11 K	0.00216
in n-butanol, 288.27 K	0.00234
in n-butanol, 293.3 K	0.00265
in n-butanol, 298.06 K	0.00315
in n-butanol, 303.66 K	0.00366
in n-butanol, 308.36 K	0.00386
in n-butanol, 312.66 K	0.00474
in n-butanol, 317.94 K	0.0052
in n-hexanol, 298.48 K	0.00244
in n-hexanol, 302.97 K	0.0032
in n-hexanol, 308.15 K	0.00362
in n-hexanol, 312.7 K	0.00424
in n-hexanol, 317.67 K	0.00477
in n-hexanol, 320.84 K	0.00544
in n-pentanol, 303.05 K	0.00408
in n-pentanol, 308.05 K	0.00532
in n-pentanol, 313.15 K	0.00594
in n-pentanol, 318.15 K	0.00651
in n-pentanol, 323.05 K	0.0074
in n-propanol, 278.15 K	0.00169
in n-propanol, 280.84 K	0.0019
in n-propanol, 283.34 K	0.0022
in n-propanol, 288.17 K	0.00249
in n-propanol, 293.15 K	0.00268
in n-propanol, 298.35 K	0.0032
in n-propanol, 304.05 K	0.00377
in n-propanol, 308.25 K	0.00425
in n-propanol, 313.15 K	0.00473
in n-propanol, 317.55 K	0.00528
in sec-butanol, 283.05 K	0.00145
in sec-butanol, 288.05 K	0.00172
in sec-butanol, 293.15 K	0.00209
in sec-butanol, 298.25 K	0.00235
in sec-butanol, 303.45 K	0.00263
in sec-butanol, 308.25 K	0.00311
in sec-butanol, 313.25 K	0.00346
in sec-butanol, 318.15 K	0.00391
